Laboratory results as given in patent publication US10450549B2, “Aryloxyphenoxypropionate tolerance in turfrgass species and use of AAD1 as a selectable marker” (Dow AgroSciences, LLC, priority 2004, dated 2019).

Assays:
Non-transformed hybrids = assay: Field tolerance to quizalofop and 2,4-D: non-transformed hybrids; assay type: in vivo, corn; conditions: 1120 g ae/ha
From the text: (§1) Two field trials were established at field stations in Hawaii and Indiana. […] The hybrid Hi-II×5XH571 is of the same parentage as the AAD1 (v3) event lines. The hybrid Croplan 585SR is a sethoxydim resistant line.
(§2) The experimental design was a split-plot with four replications. The main plot was herbicide treatment and the sub-plot was AAD1 (v3) event or comparison hybrid. Plots were one row by 3.7 meters with approximately twenty-five seeds planted in each row. For AAD1 events, seeds from a different lineage within the event were planted in each replicate.
(§3) Glufosinate at 560 g ai/ha was applied to AAD1 (v3) plots at the V2 stage to eliminate non-transformed plants. […] Treatments were applied using backpack broadcast boom equipment delivering 187 L/ha carrier volume at 130-200 kpa pressure.
(§4) Quizalofop treated plots were visually assessed for crop injury at one and three weeks after application (WAA) using a 0-100% scale, where 0 equals no injury and 100 equals complete death.

AAD1 (v3) event lines = assay: Field tolerance of pDAB3404 T1 corn to quizalofop and 2,4-D: AAD1 (v3) events; assay type: in vivo; conditions: 1120 g ae/ha
From the text: as §1, §2, §3, §4

[1] = test system: Arabidopsis thaliana var. Columbia; assay: Arabidopsis plate test bioassay for herbicide degradation; assay type: in vivo; conditions: Arabidopsis thaliana, 168 h, read-out: GR50, Chemical alone
[2] = test system: T4 Arabidopsis homozygous for AAD1 (v3) (line AAD1.01.315.076); assay: Foliar-applied auxinic herbicides on homozygous T4 AAD1 (v3) Arabidopsis, % injury 14 DAT; assay type: in vivo, Arabidopsis thaliana; conditions: foliar, 50-3200 g ae/ha
Description: The ability of AAD1 (v3) to provide resistance to other aryloxyphenoxyalkanoate auxin herbicides in transgenic Arabidopsis was determined by foliar application of various substrates described in Example 6.8. T4 generation Arabidopsis seed, homozygous for AAD1 (v3) (line AAD1.01.315.076) was stratified, and sown into selection trays much like that of Arabidopsis (Example 6.4). A transformed-control line containing PAT and the insect resistance gene Cry1F was planted in a similar manner. Seedlings were transferred to individual 3-inch pots in the greenhouse. All plants were sprayed with the use of a track sprayer set at 187 L/ha. […] All applications were formulated in 200 mM Hepes buffer (pH 7.5). Each treatment was replicated 3-4 times. Plants were evaluated at 3 and 14 days after treatment and are averaged over two experiments.

AAD1 (v1) = biological target: T1, AAD1 (v1) (Sphingobium herbicidovorans, UniProt Q8KSC8); assay: Colorimetric phenol detection assay of AAD1 (v1) activity (purified enzyme or E. coli extract); assay type: biochemical
T1 construct: made in house; host or cells: E. coli BL-21 Star (DE3), plasmid pDAB3203
T1 sequence (Q8KSC8 whole entry): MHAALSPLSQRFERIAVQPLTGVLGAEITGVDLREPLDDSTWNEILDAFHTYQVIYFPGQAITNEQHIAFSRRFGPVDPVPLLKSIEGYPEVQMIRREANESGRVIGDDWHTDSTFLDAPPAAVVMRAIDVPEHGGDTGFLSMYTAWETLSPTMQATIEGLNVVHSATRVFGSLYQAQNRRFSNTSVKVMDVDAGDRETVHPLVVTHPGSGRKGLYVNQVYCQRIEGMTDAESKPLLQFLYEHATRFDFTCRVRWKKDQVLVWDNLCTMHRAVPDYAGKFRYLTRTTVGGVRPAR

wt ARBTH = assay: In vitro plate test of herbicide cross resistance: wild-type Arabidopsis; assay type: in vivo, Arabidopsis thaliana; conditions: 7 days
Description: (§5) The ability of AAD1 (v3) to provide resistance to other aryloxyphenoxyalkanoate herbicides in transgenic Arabidopsis was determined using a modified in vitro plate assay. Seeds from wild-type Arabidopsis thaliana as well as Arabidopsis thaliana containing the plant optimized AAD1 (v3) gene (T4 homozygous plants id=PAAD1.315.064) were sterilized by agitating for 10 min in a 50% bleach solution. These seeds were then rinsed four times with sterile water to remove the bleach.
(§6) Dose response assays utilized a nutrient media (see below) supplemented with various rates of test compounds. The test compounds were added to the heated media (55° C.) as concentrated solutions in DMSO. Control wells had the appropriate amount of DMSO without any additional compound. The final concentration of DMSO never exceeded 1% (v/v). After thorough mixing, a 6 mL aliquot of the warm media containing the appropriate concentration of compound was added to each well of a 6-well, flat bottom, polystyrene tissue culture tray (Falcon 353046, Becton Dickson and Company, Franklin Lakes, N.J.). After the media solidified, approximately 20 to 30 Arabidopsis seeds were applied on top of the solidified media and the remaining 2 mL of media was poured over the seeds. The plates were lightly agitated to disperse the seeds, covered and allowed to cool until the media had completely solidified. The plates were incubated for 7 days at 25° C. under continual fluorescent lighting (75 μE m^−2 s^−1). Nutrient Media Composition was as described in Example 2.2 and in Somerville and Orgen (1982).
(§7) Assessment of Growth Reduction. The apical portion of the Arabidopsis plants grown in the treated media was assessed visually relative to the apical portion of the plants grown in the media containing only DMSO. Values were recorded as % growth reduction. Assessments of root growth inhibition of the Arabidopsis plants grown in the treated media were achieved by carefully extracting the plants from the media and measuring the length of the root. These root lengths were then compared to the root length of the control plants to determine a % growth reduction. A minimum of five plants were assessed for each treatment. The values recorded are an average of all the plants assessed. The calculated concentration to reach 50% inhibition effect (I50) were determined for both root and shoots of wildtype and AAD1-transformed Arabidopsis. The ratios of resistant to sensitive biotypes are included in Table 19. A ratio>2 for both root and shoot measurements generally signifies significant resistance. The higher the ratio, the greater the level of resistance. […] The broad phenoxy auxin resistance is the first reported in planta.

PAAD1.315.064 ARBTH = assay: In vitro plate test of herbicide cross resistance: homozygous T4 AAD1 (v3) Arabidopsis; assay type: in vivo, Arabidopsis thaliana; conditions: for root ratio / shoot ratio: resistant to sensitive biotype, >2 signifies resistance; for PAAD1.315.064 ARBTH root 150 / PAAD1.315.064 T3 ARBTH shoot 150: 7 days
Description: as §5, §6, §7

## CNC.O=C(O)COc1ccc(Cl)cc1Cl [2,4-D amine]
Non-transformed hybrids; HI, CROPLAN 585SR
  %Leaning 2 DAA (0-100 scale): 33%
  Braceroot Deformation 3-4 WAA (0-10 scale): 9
Non-transformed hybrids; HI, DK493
  %Leaning 2 DAA (0-100 scale): 23%
  Braceroot Deformation 3-4 WAA (0-10 scale): 9
Non-transformed hybrids; HI, HI-II X 5XH571
  %Leaning 2 DAA (0-100 scale): 34%
  Braceroot Deformation 3-4 WAA (0-10 scale): 9
Non-transformed hybrids; IN, CROPLAN 585SR
  %Leaning 2 DAA (0-100 scale): 11%
  Braceroot Deformation 3-4 WAA (0-10 scale): 9
Non-transformed hybrids; IN, DK493
  %Leaning 2 DAA (0-100 scale): 20%
  Braceroot Deformation 3-4 WAA (0-10 scale): 8
Non-transformed hybrids; IN, HI-II X 5XH571
  %Leaning 2 DAA (0-100 scale): 13%
  Braceroot Deformation 3-4 WAA (0-10 scale): 7
AAD1 (v3) event lines; HI, 3404.001
  %Leaning 2 DAA (0-100 scale): 5%
  Braceroot Deformation 3-4 WAA (0-10 scale): 2
AAD1 (v3) event lines; HI, 3404.006
  %Leaning 2 DAA (0-100 scale): 0%
  Braceroot Deformation 3-4 WAA (0-10 scale): 0
AAD1 (v3) event lines; HI, 3404.013
  %Leaning 2 DAA (0-100 scale): 0%
  Braceroot Deformation 3-4 WAA (0-10 scale): 0
AAD1 (v3) event lines; HI, 3404.017
  %Leaning 2 DAA (0-100 scale): 0%
  Braceroot Deformation 3-4 WAA (0-10 scale): 0
AAD1 (v3) event lines; HI, 3404.020
  %Leaning 2 DAA (0-100 scale): 0%
  Braceroot Deformation 3-4 WAA (0-10 scale): 0
AAD1 (v3) event lines; HI, 3404.022
  %Leaning 2 DAA (0-100 scale): 0%
  Braceroot Deformation 3-4 WAA (0-10 scale): 0
AAD1 (v3) event lines; HI, 3404.025
  %Leaning 2 DAA (0-100 scale): 0%
  Braceroot Deformation 3-4 WAA (0-10 scale): 0
AAD1 (v3) event lines; HI, 3404.027
  %Leaning 2 DAA (0-100 scale): 0%
  Braceroot Deformation 3-4 WAA (0-10 scale): 0
AAD1 (v3) event lines; HI, 3404.031
  %Leaning 2 DAA (0-100 scale): 0%
  Braceroot Deformation 3-4 WAA (0-10 scale): 0
AAD1 (v3) event lines; HI, 3404.033
  %Leaning 2 DAA (0-100 scale): 0%
  Braceroot Deformation 3-4 WAA (0-10 scale): 0
AAD1 (v3) event lines; HI, 3404.036
  %Leaning 2 DAA (0-100 scale): 0%
  Braceroot Deformation 3-4 WAA (0-10 scale): 0
AAD1 (v3) event lines; HI, 3404.044
  %Leaning 2 DAA (0-100 scale): 0%
  Braceroot Deformation 3-4 WAA (0-10 scale): 1
AAD1 (v3) event lines; HI, 3404.050
  %Leaning 2 DAA (0-100 scale): 1%
  Braceroot Deformation 3-4 WAA (0-10 scale): 1
AAD1 (v3) event lines; HI, 3404.053
  %Leaning 2 DAA (0-100 scale): 0%
  Braceroot Deformation 3-4 WAA (0-10 scale): 0
AAD1 (v3) event lines; HI, 3404.074
  %Leaning 2 DAA (0-100 scale): 0%
  Braceroot Deformation 3-4 WAA (0-10 scale): 0
AAD1 (v3) event lines; HI, 3404.082
  %Leaning 2 DAA (0-100 scale): 0%
  Braceroot Deformation 3-4 WAA (0-10 scale): 1
AAD1 (v3) event lines; IN, 3404.001
  %Leaning 2 DAA (0-100 scale): 0%
  Braceroot Deformation 3-4 WAA (0-10 scale): 1
AAD1 (v3) event lines; IN, 3404.006
  %Leaning 2 DAA (0-100 scale): 0%
  Braceroot Deformation 3-4 WAA (0-10 scale): 0
AAD1 (v3) event lines; IN, 3404.013
  %Leaning 2 DAA (0-100 scale): 0%
  Braceroot Deformation 3-4 WAA (0-10 scale): 0
AAD1 (v3) event lines; IN, 3404.017
  %Leaning 2 DAA (0-100 scale): 1%
  Braceroot Deformation 3-4 WAA (0-10 scale): 0
AAD1 (v3) event lines; IN, 3404.020
  %Leaning 2 DAA (0-100 scale): 0%
  Braceroot Deformation 3-4 WAA (0-10 scale): 0
AAD1 (v3) event lines; IN, 3404.022
  %Leaning 2 DAA (0-100 scale): 1%
  Braceroot Deformation 3-4 WAA (0-10 scale): 0
AAD1 (v3) event lines; IN, 3404.025
  %Leaning 2 DAA (0-100 scale): 0%
  Braceroot Deformation 3-4 WAA (0-10 scale): 0
AAD1 (v3) event lines; IN, 3404.027
  %Leaning 2 DAA (0-100 scale): 3%
  Braceroot Deformation 3-4 WAA (0-10 scale): 0
AAD1 (v3) event lines; IN, 3404.031
  %Leaning 2 DAA (0-100 scale): 1%
  Braceroot Deformation 3-4 WAA (0-10 scale): 0
AAD1 (v3) event lines; IN, 3404.033
  %Leaning 2 DAA (0-100 scale): 0%
  Braceroot Deformation 3-4 WAA (0-10 scale): 0
AAD1 (v3) event lines; IN, 3404.036
  %Leaning 2 DAA (0-100 scale): 0%
  Braceroot Deformation 3-4 WAA (0-10 scale): 0
AAD1 (v3) event lines; IN, 3404.044
  %Leaning 2 DAA (0-100 scale): 1%
  Braceroot Deformation 3-4 WAA (0-10 scale): 0
AAD1 (v3) event lines; IN, 3404.050
  %Leaning 2 DAA (0-100 scale): 0%
  Braceroot Deformation 3-4 WAA (0-10 scale): 0
AAD1 (v3) event lines; IN, 3404.053
  %Leaning 2 DAA (0-100 scale): 1%
  Braceroot Deformation 3-4 WAA (0-10 scale): 0
AAD1 (v3) event lines; IN, 3404.074
  %Leaning 2 DAA (0-100 scale): 0%
  Braceroot Deformation 3-4 WAA (0-10 scale): 0
AAD1 (v3) event lines; IN, 3404.082
  %Leaning 2 DAA (0-100 scale): 0%
  Braceroot Deformation 3-4 WAA (0-10 scale): 0

## Oc1ccc(Cl)cc1Cl [DCP, 2,4-dichlorophenol]
[1]
  IC50: > 1000 nM
[2]
  effect of the metabolite on wildtype or transgenic Arabidopsis: no effect

## Cc1cc(Cl)ccc1OCC(=O)O [MCPA]
AAD1 (v1); 1 mM, 27 μg crude recombinant AAD1 (v1) per assay
  rate of product formation relative to 2,4-D: 55%
AAD1 (v1); Table 8, 1 mM, 27 μg crude recombinant AAD1 (v1) extract from E. coli
  A510: 0.097
AAD1 (v1); Table 8, relative to 2,4-D, crude AAD1 (v1) extract
  % 2,4-D: 55%
Wt ARBTH
  wt ARBTH root 150: 0.01 ppm
  wt ARBTH shoot 150: 0.2 ppm
PAAD1.315.064 ARBTH
  root ratio: 3
  shoot ratio: 5
  PAAD1.315.064 ARBTH root 150: 0.03 ppm
  PAAD1.315.064 T3 ARBTH shoot 150: 1 ppm

## Nc1c(Cl)c(Cl)nc(C(=O)O)c1Cl [Picloram]
Wt ARBTH
  wt ARBTH root 150: 0.3 ppm
  wt ARBTH shoot 150: 1 ppm
PAAD1.315.064 ARBTH
  root ratio: 0.5
  shoot ratio: 0.5
  PAAD1.315.064 ARBTH root 150: 0.15 ppm
  PAAD1.315.064 T3 ARBTH shoot 150: 0.5 ppm
PAAD1.315.064 ARBTH; root and shoot assessment
  resistance afforded by AAD1 (v3) in plate test: did not effectively protect
